Source: US6489269B1, “Plant-activating agent” (Kao Corporation, priority 1998, dated 2002)

System: Chlorella cells
Experiment: Test of reproductive ability using chlorella cells
Assay type: cell-based
Settings: number of chlorella cells after 10 days, relative value, no-treated LS medium = 100; start 1.00x10^5 cells per ml
Experimental: <Test of Reproductive Ability Using Chlorella Cells> Chlorella cells, which are green cells of […], were cultured with vibration in an inorganic-salt medium. Raw materials shown in Table 4 were added thereto, and then reproductive ability of chlorella cells (ability for increasing the number of the cells) was evaluated by comparison with the result obtained from a medium which was no-treated (i.e., only original nutrients of the inorganic salt medium). For the respective compositions, the test was repeated 3 times. The concentration of the cells was set to 1.00×10^5 cells (per ml) at the start of the test. […] As the inorganic salt medium, a Linsmaier-Skoog (LS) medium was used.

Structure (SMILES) | proliferating ability of cells
CCCCCCO [Comparative product 4-2, Hexanol, reference compound] | 93
CCCO [Comparative product 4-1, Propanol, reference compound] | 96
CCCCCCCCCCCCCCO [Invention product 4-2, Myristyl alcohol] | 128
CCCCCCCC/C=C\CCCCCCCCO [Invention product 4-7, Oleyl alcohol] | 154
CCCCCCCCO [Comparative product 4-7, Octanol, reference compound] | 95
CCCCCCCCCCCCCCCCCCCCCCO [Invention product 4-9, Docosanol] | 130
CCCCCCCCCCCCCCCCO [Invention product 4-4, Cetyl alcohol] | 148
CCCCCCCCCCCCCCCCCCCCO [Invention product 4-8, Eicosanol] | 152
CCCCCCCCCCCCCCCCCCO [Invention product 4-6, Stearyl alcohol] | 168
CCCCCCCCCCCCCCCCCCO [Invention product 4-16, Stearyl alcohol] | 156
CCCCCCCCCCCCCCCCO [Invention product 4-15, Cetyl alcohol] | 142
CCCCCCCCCCCCCCCCCCCCO [Invention product 4-17, Eicosanol] | 146
CCCCCCCCCCCCCCCCCCCCCCCCO [Invention product 4-10, Tetracosanol] | 122
CCCCCCCCCCCCO [Invention product 4-1, Lauryl alcohol] | 115
CCCCCCCCCCO [Comparative product 4-4, Decyl alcohol, reference compound] | 91
